≈ marks a conversion by molar mass, not a printed value.
Columns and labels:
Type in all cases: functional
[1] = tested on: Staphylococcus aureus; assay: Antibacterial activity against methicillin-resistant Staphylococcus aureus assessed as susceptible isolates by CLSI M7-A7 broth microdilution method
[2] = tested on: Enterococcus faecalis; assay: Antibacterial activity against vancomycin-susceptible Enterococcus faecalis by CLSI M7-A7 broth microdilution method
[3] = tested on: Enterococcus faecium; assay: Antibacterial activity against vancomycin-resistant Enterococcus faecium by CLSI M7-A7 broth microdilution method
[4] = tested on: Staphylococcus aureus; assay: Antibacterial activity against coagulase-negative and oxacillin-resistant Staphylococcus aureus by CLSI M7-A7 broth microdilution method
[5] = tested on: Staphylococcus aureus; assay: Antibacterial activity against coagulase-negative and oxacillin-susceptible Staphylococcus aureus assessed as resistant isolates by CLSI M7-A7 broth microdilution method
[6] = tested on: Staphylococcus aureus; assay: Antibacterial activity against methicillin-susceptible Staphylococcus aureus by CLSI M7-A7 broth microdilution method
[7] = tested on: Staphylococcus aureus; assay: Antibacterial activity against coagulase-negative and oxacillin-resistant Staphylococcus aureus assessed as susceptible isolates by CLSI M7-A7 broth microdilution method
[8] = tested on: Staphylococcus aureus; assay: Antibacterial activity against methicillin-resistant Staphylococcus aureus by CLSI M7-A7 broth microdilution method
[9] = tested on: Staphylococcus aureus; assay: Antibacterial activity against coagulase-negative and oxacillin-susceptible Staphylococcus aureus by CLSI M7-A7 broth microdilution method
[10] = tested on: Staphylococcus aureus; assay: Antibacterial activity against methicillin-resistant Staphylococcus aureus assessed as resistant isolates by CLSI M7-A7 broth microdilution method
[11] = tested on: Staphylococcus aureus; assay: Antibacterial activity against coagulase-negative and oxacillin-resistant Staphylococcus aureus assessed as resistant isolates by CLSI M7-A7 broth microdilution method
[12] = tested on: Enterococcus faecalis; assay: Antibacterial activity against vancomycin-resistant Enterococcus faecalis by CLSI M7-A7 broth microdilution method
[13] = tested on: Staphylococcus aureus; assay: Antibacterial activity against methicillin-susceptible Staphylococcus aureus assessed as resistant isolates by CLSI M7-A7 broth microdilution method
[14] = tested on: Moraxella catarrhalis; assay: Antibacterial activity against beta lactamase-positive Moraxella catarrhalis by CLSI M7-A7 broth microdilution method
[15] = tested on: Staphylococcus aureus; assay: Antibacterial activity against coagulase-negative and oxacillin-susceptible Staphylococcus aureus assessed as susceptible isolates by CLSI M7-A7 broth microdilution method
[16] = tested on: Staphylococcus aureus; assay: Antibacterial activity against methicillin-susceptible Staphylococcus aureus assessed as susceptible isolates by CLSI M7-A7 broth microdilution method

In the case of `Cc1onc(-c2ccccc2)c1C(=O)N[C@@H]1C(=O)N2[C@@H]1SC(C)(C)[C@@H]2C(=O)O` [OXACILLIN], the Activity [1] is reported as 0%, the MIC50 [2] is reported as over 8 µg/mL and the MIC90 [2] is reported as over 8 µg/mL. It also gave an MIC [3] of over 8 µg/mL, an MIC50 [3] of over 8 µg/mL and an MIC90 [3] of over 8 µg/mL. For the same compound, the MIC50 [4] was over 8 µg/mL, the MIC90 [4] was over 8 µg/mL and the Activity [5] was 0%. The MIC50 [6] was 0.25 µg/mL (≈ 0.623 µM), the MIC90 [6] was 0.5 µg/mL (≈ 1.25 µM) and the Activity [7] was 0%. It also gave an MIC50 [8] of over 8 µg/mL, an MIC90 [8] of over 8 µg/mL and an MIC50 [9] of 0.12 µg/mL (≈ 0.299 µM). The MIC90 [9] was 0.25 µg/mL (≈ 0.623 µM), the Activity [10] was 100% and the Activity [11] was 100%. For the same compound, the MIC50 [12] was over 8 µg/mL, the MIC90 [12] was over 8 µg/mL and the Activity [13] was 0%. For the same compound, the MIC50 [14] was 4 µg/mL (≈ 9.96 µM), the MIC90 [14] was over 8 µg/mL and the Activity [15] was 100%. It also gave an Activity [16] of 100%.

Reference: ChEMBL document CHEMBL1671626, “In vitro profiling of ceftaroline against a collection of recent bacterial clinical isolates from across the United States” (2008)
